What was measured:
[1] = target: T1, COX-2 (Homo sapiens, UniProt P35354); assay: Human whole blood assay, COX-2 inhibition (PGE2 ELISA after LPS); assay type: cell-based; settings: LPS 24 h
T1 construct: incubation of human blood with lipopolysaccharide (LPS), which induces COX-2 production in the blood; endogenous in cells; host or cells: fresh human whole blood from volunteers, treated with aspirin and then LPS
T1 sequence (P35354 18-604): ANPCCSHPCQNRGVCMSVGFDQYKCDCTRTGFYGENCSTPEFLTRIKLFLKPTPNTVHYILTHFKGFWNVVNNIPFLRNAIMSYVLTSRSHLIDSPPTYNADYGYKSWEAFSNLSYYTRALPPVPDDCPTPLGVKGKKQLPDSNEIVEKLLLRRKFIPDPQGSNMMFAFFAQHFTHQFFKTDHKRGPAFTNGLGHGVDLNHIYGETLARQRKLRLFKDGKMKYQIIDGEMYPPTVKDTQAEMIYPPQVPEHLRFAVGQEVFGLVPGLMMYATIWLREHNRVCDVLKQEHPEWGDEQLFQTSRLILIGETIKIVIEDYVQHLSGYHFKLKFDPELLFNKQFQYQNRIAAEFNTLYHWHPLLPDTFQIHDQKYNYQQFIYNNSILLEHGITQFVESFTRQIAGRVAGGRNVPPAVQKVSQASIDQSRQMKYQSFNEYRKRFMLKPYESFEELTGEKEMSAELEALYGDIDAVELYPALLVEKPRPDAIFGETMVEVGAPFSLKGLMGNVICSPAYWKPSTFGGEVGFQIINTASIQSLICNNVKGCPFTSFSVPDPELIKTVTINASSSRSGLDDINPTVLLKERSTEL
Description: In Vivo Evaluation of Cyclooxygenase-2 (COX-2) Inhibition Activity
The COX-2 inhibition activities of the compounds illustrated in the examples are determined by the following method.
Human whole blood provides a protein and cell rich milieu appropriate for the study of biochemical efficacy of anti-inflammatory compounds such as selective COX-2 inhibitors. […] This is correlating with the observation that COX-2 inhibitors have no effect on prostaglandin E2 (PGE2) production in normal blood. These inhibitors are active only after incubation of human blood with lipopolysaccharide (LPS), which induces COX-2 production in the blood.
Fresh blood is collected in tubes containing potassium EDTA by vein puncture from make volunteers. The subjects should have no apparent inflammatory conditions and not taken NSAIDs for at least 7 days prior to blood collection. Blood is treated with aspirin in vitro (10 μg/ml, at time zero) to inactivate COX-1, and then with LPS (10 μg/ml) along with test agents or vehicle. The blood is incubated for 24 h at 37° C., after which the tubes are centrifuged, the plasma is separated and stored at −80° C. (J. Pharmacol. Exp. Ther, 271, 1705, 1994; Proc. Natl. Acad. Sci. USA., 96, 7563, 1999). The plasma is assayed for PGE2 using Cayman ELISA kit as per the procedure outlined by the manufacturer (Cayman Chemicals, Ann Arbor, USA).

[2] = tested on: Male Wistar rats; assay: Gastroulcerogenic potential (stomach lesions after the paw edema test); assay type: in vivo; settings: 10 mg/kg body weight, oral, rat
Description: (§1) The carrageenan paw edema test is performed as described by Winter et al (Proc. Soc. Exp. Biol. Med, 111, 544, 1962). Male Wistar rats are selected and the body weights are equivalent within each group. The rats are fasted for eighteen hours with free access to water. The rats are dosed orally with the test compound suspended in vehicle containing 0.5% methylcellulose. The control rats are administered the vehicle alone. After an hour, the rats are injected with 0.1 ml of 1% Carrageenan solution in 0.9% saline into the sub-plantar surface of the right hind paw. Paw volume is measured using water plethysmograph before and after 3 hours of carrageenan injection. The average of foot swelling in drug treated animals is compared with that of control animals. Anti-inflammatory activity is expressed as the percentage inhibition of edema compared with control group [Arzneim-Forsch/Drug Res., 43(I), 1, 44-50,1993; Ottemess and Bliven, Laboratory Models for Testing NSAIDs, In Non-Steroidal Anti-Inflammatory Drugs, (J. Lombardino, ed. 1985)]. In order to evaluate their role on the ulcer formation, the animals are sacrificed and the stomach is taken out and flushed with 1% formalin. The stomach is opened along the greater curvature. The haemorrhagic puncta and sulci are identified microscopically and images are captured. The stomach lesions are calculated.

[3] = tested on: IL-6; assay: IL-6 production in LPS-stimulated human whole blood; assay type: cell-based; settings: LPS 4 h
Description: This assay determines the effect of test compounds on the production of IL-6 from human whole blood. Compounds are tested for their ability to downregulate the production of IL-6 in activated whole blood. The test compounds are pre-incubated for 15 minutes at 37° C. and then stimulated with Lipopolysaccharide (Salmonella abortus equi, 1 μg/ml) for 4 h at 37° C. in 5% CO2. The levels of Interleukin-6 are estimated using Enzyme linked Immunosorbent assay performed in a 96 well format as per the procedure of the manufacturer (Cayman Chemical, Ann Arbor, USA).

[4] = tested on: Male Wistar rats; assay: Rat carrageenan paw edema test; assay type: in vivo; settings: 10 mg/kg body weight, oral, paw volume 3 hours after carrageenan, read-out: Rat Paw Edema model % inhibition
Description: Rat Carrageenan Paw Edema Test
as §1

[5] = tested on: MCF-7; assay: DTP human tumor cell line one-dose prescreen, MCF-7; assay type: cell-based; settings: MCF7, 48 hours, Alamar Blue, test/control, read-out: Percentage growth Breast MCF-7
Description: (§2) DTP Human Tumor Cell Line Screen
(§3) Methodology of the In Vitro Cancer Screen
(§4) The current assay utilizes a 384 well plate format and fluorescent staining technologies resulting in greater screening capacity for testing of synthetic samples.
(§5) The cell lines of the cancer-screening panel are grown in RPMI 1640 medium containing 5% fetal bovine serum and 2 mM L-glutamine. For a typical screening experiment, cells are inoculated into 96 well microtiter plates in 100 μL. After cell inoculation, the microtiter plates are incubated at 37° C., 5% CO2, 95% air and 100% relative humidity for 24 h prior to addition of experimental drugs. The cells are plated a densities of 5000 cells/well (MCF7), 1000 cells/well (NC1—H460), and 7500 cells/well (SF-268) to allow for varying doubling time of the cell lines. Each plate contains all three cell lines, a series of dilutions of standard agents, total kill wells and appropriate controls. Plates are incubated under standard conditions for 24 hours prior to addition of experimental compounds or extracts.
(§6) Addition of Experimental Agents (Pure Compounds)
(§7) Experimental compounds are solubilized in dimethyl sulfoxide (DMSO) at 400-times the desired maximum test concentration (maximum final DMSO concentration of 0.25%) and stored frozen. Compounds are then diluted with complete media with 0.1% gentamicin sulfate (5 μl of test sample in 100% DMSO is added to 565 μl of complete medium). 20 μl of this solution is then dispensed into test wells containing 50 μl of cell suspension to yield a test concentration of 1.00E-04M.
(§8) Two standard drugs, meaning that their activities against the cell lines are well documented, are tested against each cell line: NSC 19893 (5-FU) and NSC 123127 (Adriamycin).
(§9) After compound addition, plates are incubated at standard conditions for 48 hours, 10 μl/well Alamar Blue is added and the plates are incubated for an additional 4 hours. Fluorescence is measured using an excitation wavelength of 530 nm and an emission wavelength of 590 nm.
(§10) Calculation of Percent Test Cell Growth/Control (Untreated) Cell Growth (T/C)
(§11) Percent growth is calculated on a plate-by-plate basis for test wells relative to control wells. Percent Growth is expressed as the ratio of fluorescence of the test well to the average fluorescence of the control wells x 100.

[6] = tested on: NCI-H460; assay: DTP human tumor cell line one-dose prescreen, NCI-H460; assay type: cell-based; settings: 48 hours, Alamar Blue, test/control, read-out: Percentage growth Lung NCI-H460
Description: as §2, §3, §4, §5, §6, §7, §8, §9, §10, §11

[7] = tested on: SF-268; assay: DTP human tumor cell line one-dose prescreen, SF-268; assay type: cell-based; settings: 48 hours, Alamar Blue, test/control, read-out: Percentage growth CNS SF-268
Description: as §2, §3, §4, §5, §6, §7, §8, §9, §10, §11

[8] = tested on: TNF-α; assay: TNF-α production in LPS-stimulated human whole blood; assay type: cell-based; settings: 1 μM, LPS 4 h
Description: Tumor Necrosis Factor Alpha (TNF-α)
This assay determines the effect of test compounds on the production of TNF-α in human whole blood. TNF-α assay is carried out as described by Armin hatzelmann and Christian Schudt (J Pharm Exp Ther 297, 261, 2001). Compounds are tested for their ability to inhibit the activity of TNF-α in human whole blood. The test compounds are pre-incubated for 15 minutes at 37° C. and then stimulated with Lipopolysaccharide (Salmonella abortus equi, 1 μg/ml) for 4 h at 37° C. in 5% CO2. The levels of TNF-α are estimated using Enzyme linked Immunosorbent assay performed in a 96 well format as per the procedure of the manufacturer (Cayman Chemical, Ann Arbor, USA).

CSc1ccc(-n2c(-c3ccc(F)cc3)nc(SC)c(C#N)c2=O)cc1 [Example 2, 5-cyano-2-(4-fluorophenyl)-4-(methylthio)-1-[4-(methylthio)phenyl]-6-oxo-1,6-dihydropyrimidine]
inhibition at 1 µM [1]: 53.4%
melting point: 204 to 207 °C
Gastroulcerogenic potential (% incidence of ulceration) [2]: 25%
inhibition at 0.25 µM [3]: 45%
inhibition in vivo at 10 mg/kg [4]: 39%

CSc1ccc(-n2c(-c3ccccc3)nc(SC)c(C#N)c2=O)cc1 [Example 3, 5-cyano-2-phenyl-4-(methylthio)-1-[4-(methylthio)phenyl]-6-oxo-1,6-dihydropyrimidine]
melting point: 204 to 205 °C
activity at 100 µM [5]: 82%
inhibition at 0.25 µM [3]: 11.3%
activity at 100 µM [6]: 30%
activity at 100 µM [7]: 90%

CSc1ccc(-n2c(-c3ccc(C(F)(F)F)cc3)nc(SC)c(C#N)c2=O)cc1 [Example 4]
inhibition at 10 µM ([1]; 10 μM): 50.1%
melting point: 228 to 229 °C
Gastroulcerogenic potential (% incidence of ulceration) [2]: 25%
inhibition at 0.25 µM [3]: 48.4%
inhibition in vivo at 10 mg/kg [4]: 38.5%

CSc1ccc(-c2nc(SC)c(C#N)c(=O)n2-c2ccc(F)cc2)cc1 [Example 5, 5-cyano-2-[(4-methylthio)phenyl]-4-(methylthio)-1-[4-fluorophenyl]-6-oxo-1,6-dihydropyrimidine]
inhibition at 1 µM [1]: 40.5%
melting point: 219 to 221 °C
Gastroulcerogenic potential (% incidence of ulceration) [2]: 37.5%
inhibition at 0.25 µM [3]: 51%
inhibition in vivo at 10 mg/kg [4]: 13.3%

CSc1ccc(-c2nc(SC)c(C(=O)O)c(=O)n2-c2ccc(C)cc2)cc1 [Example 8, 5-carboxy-2-[(4-methylthio)phenyl]-4-(methylthio)-1-(4-methylphenyl)-6-oxo-1,6-dihydropyrimidine]
inhibition at 1 µM [1]: 40.1%
melting point: 173 to 175 °C
activity at 100 µM [5]: 77%
inhibition at 1 µM [3]: 69.4%
activity at 100 µM [6]: 51%
activity at 100 µM [7]: 89%

CSc1ccc(-c2nc(SC)c(C#N)c(=O)n2-c2ccc(C(C)C)cc2)cc1 [Example 9, 5-cyano-1-(4-isopropylphenyl)-4-(methylthio)-2-[4-(methylthio)phenyl]-6-oxo-1,6-dihydropyrimidine]
melting point: 180 to 181 °C
Gastroulcerogenic potential (% incidence of ulceration) [2]: 0%
inhibition at 0.25 µM [3]: 31.1%
inhibition in vivo at 10 mg/kg [4]: 37.2%

CSc1ccc(-c2nc(SC)c(C#N)c(=O)n2-c2ccc(Cl)cc2)cc1 [Example 18, 1-(4-chlorophenyl)-5-cyano-4-(methylthio)-2-[4-(methylthio)phenyl]-6-oxo-1,6-dihydropyrimidine]
melting point: 203 to 205 °C
activity at 100 µM [5]: 89%
inhibition at 100 µM ([3]; 100 μM): 44.8%
activity at 100 µM [6]: 98%
activity at 100 µM [7]: 86%
inhibition at 1 µM [8]: 35.7%

CCOc1ccc(-n2c(-c3ccc(SC)cc3)nc(SC)c(C#N)c2=O)cc1 [Example 21, 5-cyano-1-(4-ethoxyphenyl)-4-(methylthio)-2-[4-(methylthio)phenyl]-6-oxo-1,6-dihydropyrimidine]
inhibition at 0.25 µM ([1]; 0.25 μM): 7.79%
melting point: 209 to 213 °C
activity at 100 µM [5]: 84%
inhibition at 1 µM [3]: 17.3%
activity at 100 µM [6]: 92%
activity at 100 µM [7]: 91%
inhibition at 1 µM [8]: 46.6%

CSc1nc(-c2cccnc2)n(-c2ccc(F)cc2)c(=O)c1C#N [Example 26, 5-cyano-1-(4-fluorophenyl)-4-(methylthio)-6-oxo-2-pyridin-3-yl-1,6-dihydropyrimidine]
melting point: 190 to 193 °C
activity at 100 µM [5]: 74%
activity at 100 µM [6]: 79%
activity at 100 µM [7]: 99%
inhibition at 1 µM [8]: 30.6%

CSc1ccc(-n2c(-c3ccccn3)nc(SC)c(C#N)c2=O)cc1 [Example 30, 5-cyano-4-(methylthio)-1-[4-(methylthio)phenyl]-6-oxo-2-pyridin-2-yl-1,6-dihydropyrimidine]
inhibition at 1 µM [1]: 14.9%
melting point: 158 to 161 °C
activity at 100 µM [5]: 38%
activity at 100 µM [6]: 27%
activity at 100 µM [7]: 86%

CCOC(=O)c1c(SC)nc(-c2ccc(SC)cc2)n(-c2ccc(C)cc2)c1=O [Example 41, ethyl 1-(4-methylphenyl)-4-(methylthio)-2-[4-(methylthio)phenyl]-6-oxo-1,6-dihydropyrimidine-5-carboxylate]
melting point: 153 to 155 °C
activity at 100 µM [5]: 85%
inhibition at 10 µM ([3]; 10 μM): 21.9%
activity at 100 µM [6]: 86%
activity at 100 µM [7]: 89%

— patent US7365069B2, “Pyrimidone derivatives” (Bexel Pharmaceuticals Inc., priority 2002, dated 2008)
